The record followed here is ChEMBL document CHEMBL3272199, “Beta-lactam antibiotics with N-oxide side chains. 1. Quinoxaline N-oxides” (1976).

The test system of assay [1] is Staphylococcus aureus. The assay is described as follows: Antibacterial activity against Staphylococcus aureus assessed as growth inhibition incubated for 24 hrs using mixed anhydride. The format is functional.
Assay [2] relates to Salmonella. The assay is described as follows: Antibacterial activity against Salmonella schottmuelleri assessed as growth inhibition incubated for 24 hrs using mixed anhydride. The format is functional.
The test system of assay [3] is Proteus mirabilis. Description: Antimicrobial activity against Proteus mirabilis infected in mouse assessed as growth inhibition at 250 mg/kg. Set-up: dose 250 mg/kg. The format is functional, organism-based.
Assay [4] relates to Pseudomonas aeruginosa. Description: Antimicrobial activity against Pseudomonas aeruginosa infected in mouse assessed as growth inhibition at 250 mg/kg. The format is functional, organism-based. On the set-up: dose 250 mg/kg.
The subject of assay [5] is Staphylococcus aureus. The assay is described as follows: Antibacterial activity against Staphylococcus aureus assessed as growth inhibition incubated for 24 hrs using acid chloride. The format is functional.
Assay [6] concerns Salmonella. The assay is described as follows: Antibacterial activity against Salmonella schottmuelleri assessed as growth inhibition incubated for 24 hrs using acid chloride. The format is functional.
The subject of assay [7] is Staphylococcus aureus. The assay is described as follows: Antibacterial activity against Staphylococcus aureus assessed as zone of inhibition at 100 ug/ml incubated for 24 hrs. The format is functional, organism-based.

Each structure is given as a SMILES string. Values after ≈ are worked out from the molar mass of the structure shown. Active and inactive are the calls of the source. The calls are words filed in the database; no cut-off is given here.

On to `Cc1c(CC(=O)N[C@@H]2C(=O)N3[C@@H]2SC(C)(C)[C@@H]3C(=O)[O-])[n+]([O-])c2ccccc2[n+]1[O-].[Na+]`, for which the results for the minimal inhibitory concentration (MIC) in assay [1] and in assay [2] were 100 µg/mL and 1000 µg/mL, respectively. Further, the result in assay [3] and in assay [4] was inactive.
In the case of `Cc1c(C)[n+]([O-])c2cc(C(=O)N[C@@H]3C(=O)N4[C@@H]3SC(C)(C)[C@@H]4C(=O)[O-])ccc2[n+]1[O-].[Na+]`, the MIC in assay [1] is 100 µg/mL; in assay [2], > 1000 µg/mL. Besides, the result in assay [3] and in assay [4] was inactive.
On to `CCOC(=O)c1c(C(=O)N[C@@H]2C(=O)N3[C@@H]2SC(C)(C)[C@@H]3C(=O)[O-])nc2ccccc2[n+]1[O-].[Na+]`, for which the values for the minimum inhibitory concentration (MIC) in assay [5] and in assay [6] were 100 µg/mL and 1000 µg/mL, respectively. Besides, the result in assay [3] and in assay [4] was inactive. Besides, in assay [7], the “inhibition zone (IZ)” value was “Active”.
For the compound `CC1(C)S[C@@H]2[C@H](NC(=O)CCCc3c(-c4ccccc4)[n+]([O-])c4ccccc4[n+]3[O-])C(=O)N2[C@H]1C(=O)[O-].[Na+]`, the MIC in assay [1] is 10 µg/mL; in assay [2], > 1000 µg/mL. Also, the result in assay [3] and in assay [4] was inactive.
In the case of `Cc1c(C(=O)N[C@@H]2C(=O)N3[C@@H]2SC(C)(C)[C@@H]3C(=O)[O-])[n+]([O-])c2ccccc2[n+]1[O-].[Na+]`, the MIC in assay [5] amounted to 100 µg/mL; in assay [6] it was 1000 µg/mL. Further, the outcome in assay [3] and in assay [4] was inactive.
As to `CC1(C)S[C@@H]2[C@H](NC(=O)c3c(-c4ccccc4)[n+]([O-])c4ccccc4[n+]3[O-])C(=O)N2[C@H]1C(=O)[O-].[Na+]`, the MIC in assay [5] is 100 µg/mL; in assay [6], 1000 µg/mL. Further, the outcome in assay [3] and in assay [4] was inactive. The “inhibition zone (IZ)” value in assay [7] was “Active”.
`Cc1c(CC(=O)N[C@@H]2C(=O)N3C(C(=O)O)=C(C[O-])CS[C@H]23)[n+]([O-])c2ccccc2[n+]1[O-].[Na+]`: the MIC in assay [1] was 1000 µg/mL; in assay [2], > 1000 µg/mL. For the same compound, the result in assay [3] and in assay [4] was inactive. Further, the “inhibition zone (IZ)” value in assay [7] was “Active”.
Consider `CC1(C)S[C@@H]2[C@H](NC(=O)Cc3ccccc3)C(=O)N2[C@H]1C(=O)O` [PENICILLIN G], for which the MIC in assay [5], in assay [1], in assay [6] and in assay [2] was 10 µg/mL (≈ 29.9 µM) in each case.
With `CCOC(=O)c1c(CCC(=O)N[C@@H]2C(=O)N3[C@@H]2SC(C)(C)[C@@H]3C(=O)[O-])[n+]([O-])c2ccccc2[n+]1[O-].[Na+]`, the MIC came to 10 µg/mL in assay [1] and 1000 µg/mL in assay [2]. Also, the result in assay [3] and in assay [4] was inactive.

The term MIC denotes the least concentration at which growth counts as inhibited.
